Laboratory results taken from patent US9949938B2, “CoQ10 (ubiquinone, ubiquinol), vitamin A (retinoid acid, retinol), vitamin E (tocotrienol, tocopherol) and methods of use” (AMERICAN RIVER NUTRITION, priority 2013, dated 2018).

Legend:
[1] = gastric conditions, pH<2, 30 minutes; cited from earlier work
[2] = CoQ10 with and without tocotrienol in hydrochloric acid (pH<2), 30 minutes, simulated gastric conditions; type: physicochemical; settings: in the presence of tocotrienol versus without; HCl pH<2, 30 minutes
Procedure: 100 mg CoQ10 (ubiquinone or ubiquinol), with and without tocotrienol, was placed in a beaker with acid (hydrochloric acid) (pH<2) for 30 minutes to simulate gastric conditions.

SMILES | ubiquinol converted to ubiquinone [1] | CoQ10 content (both ubiquinone or ubiquinol) after acid [2]
COc1c(O)c(C)c(C/C=C(\C)CC/C=C(\C)CC/C=C(\C)CC/C=C(\C)CC/C=C(\C)CC/C=C(\C)CC/C=C(\C)CC/C=C(\C)CC/C=C(\C)CCC=C(C)C)c(O)c1OC [ubiquinol] | about 50% | –
COC1=C(OC)C(=O)C(C/C=C(\C)CC/C=C(\C)CC/C=C(\C)CC/C=C(\C)CC/C=C(\C)CC/C=C(\C)CC/C=C(\C)CC/C=C(\C)CC/C=C(\C)CCC=C(C)C)=C(C)C1=O [CoQ10, 2,3-dimethoxy-5-methyl-6-decaprenil-1,4-benzoquinone] | – | higher content
